Patent US20040266718A1, “Inhibition of specific histone deacetylase isoforms” (priority 2001, published 2004)
d = 2'-deoxy (DNA); m = 2'-O-methyl

Columns and labels:
A549 = experiment: apoptosis, Cell Death Detection ELISA, A549; format: cell-based, human; settings: 100 ng/ml
Description: (§1) In order to determine the effect of HDAC OSDNs on cell growth and cell death through apoptosis, A549 or T24 cells, MDAmb231 cells, and HMEC cells (ATCC, Manassas, Va.) were treated with HDAC OSDNs as previously described.
(§2) For the apoptosis study, cells were analyzed using the Cell Death Detection ELISA^Plus kit (Roche Diagnostic GmBH, Mannheim, Germany) according to the manufacturer's directions. Typically, 10,000 cells were plated in 96-well tissue culture dishes for 2 hours before harvest and lysis. Each sample was analyzed in duplicate. ELISA reading was done using a MR700 plate reader (DYNEX Technology, Ashford, Middlesex, England) at 410 nm. The reference was set at 490 nm.

T24 = experiment: apoptosis, Cell Death Detection ELISA, T24; format: cell-based, human; settings: 100 ng/ml
Description: as §1, §2

MDAmb231 = experiment: apoptosis, Cell Death Detection ELISA, MDAmb231; format: cell-based, human; settings: 100 ng/ml
Description: as §1, §2

HMEC = experiment: apoptosis, Cell Death Detection ELISA, HMEC; format: cell-based, human; settings: 100 ng/ml, normal cells
Description: as §1, §2

[1] = tested on: p21 mRNA expression in A549 cells; experiment: RNase protection assay, p21 in A549; format: cell-based, human; settings: TSA vs lipofectin, 250 ng/ml, 16 hours
Description: (§3) As a control, A549 cells were treated by lipofectin with or without TSA (250 ng/ml) treatment for 16 hours. These RNase protection assays were done according to the following procedure. Total RNA from cells was prepared using “RNeasy miniprep kit” from QIAGEN following the manufacturer's manual. Labeled probes used in the protection assays were synthesized using “hStress-1 multiple-probe template sets” from Pharmingen (San Diego, Calif., U.S.A.) according to the manufacturer's instructions. Protection procedures were performed using “RPA II™ Ribonuclease Protection Assay Kit” from Ambion, (Austin, Tex.) following the manufacturer's instructions. Quantitation of the bands from autoradiograms was done by using Cyclone™ Phosphor System (Packard Instruments Co. Inc., Meriden, Conn.).

[2] = tested on: GADD45 mRNA expression in A549 cells; experiment: RNase protection assay, GADD45 in A549; format: cell-based, human; settings: TSA vs lipofectin, 250 ng/ml, 16 hours
Description: as §3

[3] = tested on: Bax mRNA expression in A549 cells; experiment: RNase protection assay, Bax in A549; format: cell-based, human; settings: TSA vs lipofectin, 250 ng/ml, 16 hours
human HDAC-7 RNA = experiment: antisense screen by Northern blot in T24 cells, HDAC-7; format: cell-based; settings: screened as above (T24 cells, 100 nM, 24 hours)
Description: Eighteen phosphorothioate ODNs containing sequences complementary to the 5′ or 3′ untranslated regions of the human HDAC-7 gene (GenBank Accession No. AF239243) were screened as above.
Briefly, human A549 and/or T24 human bladder carcinoma cells were seeded in 10 cm tissue culture dishes one day prior to oligonucleotide treatment. The cell lines were obtained from the American Type Culture Collection (ATCC) (Manassas, Va.) and were grown under the recommended culture conditions. Before the addition of the oligonucleotides, cells were washed with PBS (phosphate buffered saline). Next, lipofectin transfection reagent (GIBCO BRL Mississauga, Ontario, Calif.), at a concentration of 6.25 μg/ml, was added to serum free OPTIMEM medium (GIBCO BRL, Rockville, Md.), which was then added to the cells. The oligonucleotides to be screened were then added directly to the cells (i.e., one oligonucleotide per plate of cells). Mismatched oligonucleotides were used as controls. The same concentration of oligonucleotide (e.g., 50 nM) was used per plate of cells for each oligonucleotide tested.
Cells were harvested, and total RNAs were analyzed by Northern blot analysis. Briefly, total RNA was extracted using RNeasy miniprep columns (QIAGEN). Ten to twenty μg of total RNA was run on a formaldehyde-containing 1% agarose gel with 0.5 M sodium phosphate (pH 7.0) as the buffer system. […]

fold induction of transcription, p21, A549 [1] [fold] | fold induction of transcription, GADD45, A549 [2] [fold] | fold induction of transcription, Bax, A549 [3] [fold] | Compound | Apoptosis After 48 Hour Treatment A549 (A549) | Apoptosis After 48 Hour Treatment T24 (T24) | Apoptosis After 48 Hour Treatment MDAmb231 (MDAmb231) | Apoptosis After 48 Hour Treatment HMEC (HMEC) | antisense activity to human HDAC-7 (RNA expression, Northern blot) (human HDAC-7 RNA)
2.8 | 0.6 | 0.8 | CC(/C=C/C(=O)NO)=C\[C@@H](C)C(=O)c1ccc(N(C)C)cc1 [TSA, (R)-Trichostatin A, reference compound] | ++ (3-5X fold) | ++ (3-5X fold) | ++ (3-5X fold) | + (2-3X fold) | 
 |  |  | HDAC-7 AS: antisense oligonucleotide to human HDAC7, 5′-CTTCAGCCAGGATGCCCACA-3′ (SEQ ID NO:31) (sugars from the 5' end m4 d12 m4, all phosphorothioate, methylation of C and T or U not given here) |  |  |  |  | antisense activity
